Patent US20090175838A1, “METHODS OF MODULATING IMMUNE FUNCTION” (priority 2007, published 2009)
No end group written: not given here. *: point of attachment. Biotin = O=C1N[C@H]2[C@H](CS[C@H]2CCCCC(=O)*)N1

Key:
[1] = system: human B-cell lines, Raji and Daudi; test: Binding of biotinylated synthetic peptide to B-cell lines (Streptavidin-PE flow cytometry); type: cell-based; details: 50 μM
Procedure: (§1) The ability of synthetic peptides to compete with binding of CLIP peptides and result in the cell surface expression of CD1d was determined.
(§2) Results: The results shown in FIG. 5 are expressed in histogram analyses. The Y axis represents cell number of the 5000 live cells versus the X axis which is a reflection of relative Fitc fluorescence versus Streptavidin-PE (eBioscience, Cat. #12-4317) that will bind with high affinity to cell-bound biotinylated peptides. The distance between the histogram from the isotype control staining versus the histogram reflecting the specific stain and is a measure of level of cell surface CD1d.
(§3) Cell Culture Conditions: The Raji and Daudi cell lines were purchased from American Type Culture Collection, were thawed, and grown in RPMI 1640 medium supplemented with standard supplements, including 10% fetal calf serum, gentamycin, penicillin, streptomycin, sodium pyruvate, HEPES buffer, 1-glutamine, and 2-ME.
Protocol: Cells were plated into a 12 well plate with 3 mls total volume containing approximately 1.5×10^6/well for Daudi cells and 3.0×10^6/well for Raji cells. Treatment groups included no treatment as control and biotinylated […] (SEQ ID NO. 1) (also referred to as MKN 5) at 50 μM final concentration based on the reported molarity of the synthesized compounds. […]

[2] = system: cell surface CD1d on Raji and Daudi cells; test: Cell surface expression of CD1d after competing peptide (flow cytometry, anti-CD1d); type: cell-based, human; details: 50 μM, both cell lines
Procedure: as §1, §2, §3
Protocol: Cells were plated into a 12 well plate with 3 mls total volume containing approximately 1.5×10^6/well for Daudi cells and 3.0×10^6/well for Raji cells. Treatment groups included no treatment as control and biotinylated […] […]
Harvested cells were stained using standard staining procedure that called for a 1:100 dilution of PE anti-CD1d. […] Samples were acquired and analyzed on a Coulter Excel Flow Cytometer.

[3] = system: cell surface CLIP on Raji or Daudi cells; test: MKN1 (bioCLIP) effect on cell surface CLIP level (flow cytometry); type: cell-based, human; details: 24 and 48 hours
Procedure: (§4) The ability of MKN1 (bioCLIP) to alter cell surface CLIP and CD74 levels was determined using Raji or Daudi cells.
(§5) Data were analyzed by histogram with Y axis represents cell number of the 5000 live cells versus the X axis which is a reflection of relative FITC fluorescence with either antibodies to CLIP or CD74. The distance between the histogram from the isotype control staining versus the histogram reflecting the specific stain and is a measure of level of cell surface CLIP or CD74 when staining a population of live Raji or Daudi cells.
as §3
(§6) Protocol: Cells were plated into a 12-well plate with 3 mls total volume containing approximately 0.5×10^6/mL for Daudi cells and 0.5×10^6/mL for Raji cells. […]
(§7) Harvested cells were stained using standard staining procedure that called for a 1:100 dilution of Fitc-anti-human CLIP or CD74 antibody (FITC, Pharmingen, Cat # 554647) or isotype control. […] Samples were acquired and analyzed on a Coulter Excel Flow Cytometer.

[4] = system: cell surface CD74 on Raji or Daudi cells; test: MKN1 (bioCLIP) effect on cell surface CD74 level (flow cytometry); type: cell-based, human; details: 24 and 48 hours
Procedure: as §4, §5, §3, §6, §7

Chain of cell surface CLIP on Raji or Daudi cells (P04233 97-120): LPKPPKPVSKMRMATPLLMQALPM

Substance	binding of biotinylated peptide to B-cell lines ([1]; 4 hours)	binding of biotinylated peptide to B-cell lines ([1]; 24 hours)	cell surface expression of CD1d ([2]; 4 hours)	cell surface expression of CD1d ([2]; 24 hours)	cell surface CLIP level [3]	cell surface CD74 level [4]
FRIMAVLAS (also: biotin)	bound with high affinity	Less binding	marginally	slightly more	–	–
SGG GSK MRM ATP LLM QAL Y (Biotin-SGGGSKMRMATPLLMQALY) [MKN1 (bioCLIP)]	–	–	–	–	alters cell surface CLIP and CD74 levels	alters cell surface CLIP and CD74 levels
